The results in this text go back to PubChem BioAssay (NCI).

Holding throughout (experiment): NCI-60 cell line screen, 48 h
In assay [1] the test system is HS 578T breast.
Assay [2] concerns A498 renal.
Assay [3] has as its system HL-60(TB) leukemia.
For assay [4], the system named is SK-OV-3 ovarian.
Assay [5] concerns NCI-H23 lung.
In assay [6] the test system is SF-539 CNS.
Assay [7] deals with UACC-62 melanoma.
Assay [8] deals with COLO 205 colon.

Several values for one entry are separate records, joined by “and”; a condition that tells them apart may be missing. Identical values can stand only once.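 Test compounds were applied to cells in 96-well plates for 48 hours at 5 doses. GI50 = concentration required for 50% inhibition of growth. TGI denotes the concentration required for complete inhibition of growth.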 Bounds are passed on as bounds.

`Clc1ccc(-c2nc3c(-c4ccccc4)nc(-c4ccccc4)cn3c2-c2ccc(Cl)cc2)cc1`: the GI50 in assay [1], in assay [2], in assay [3], in assay [4], in assay [5] and in assay [6] was more than 100 µM throughout. Also, the GI50 in assay [7] and in assay [8] was more than 100 µM each time. Further, the TGI in assay [1], in assay [2], in assay [3], in assay [4], in assay [5] and in assay [6] was more than 100 µM in each case. The TGI in assay [7] and in assay [8] was more than 100 µM each time.

For `CC(C)(C)[Si](C)(C)OC1[C@@H](O[Si](C)(C)C(C)(C)C)[C@@H](CNC(=O)NC(=O)NC(=O)CCl)O[C@H]1n1cnc2c(NC(=O)Nc3ccccc3)ncnc21` (stereo not given in full), the GI50 in assay [1] is 4.52 µM; in assay [2], 6.46 µM; in assay [3], 1.45 µM; in assay [4], 9.51 µM; in assay [5], 1.57 µM; in assay [6] it was 8.82 µM. Further, the GI50 in assay [7] is 8.41 µM; in assay [8], 6.3 µM. Besides, the TGI in assay [1] came out at 20.6 µM; in assay [2], 13.3 µM; in assay [3], 3.22 µM; in assay [4] it was 17.5 µM; in assay [5], 6.59 µM; in assay [6] it was 16.1 µM. For the same molecule, the results for the TGI in assay [7] and in assay [8] were 18.6 µM and 13 µM, respectively.

On to `O=C(COc1cccc(/C=C2\COc3ccccc3C2=O)c1)c1ccccc1`, for which the GI50 was 2.34 µM in assay [1]; 0.266 µM in assay [2]; 5.85 µM in assay [3]; 15.2 µM in assay [4]; 4.47 µM in assay [5]; 15.6 µM in assay [6]. Besides, the GI50 is 3 µM in assay [7] and 2.93 µM in assay [8]. In addition, the TGI in assay [1] was more than 100 µM; in assay [2], 6.78 µM; in assay [3] it was 29.2 µM; in assay [4], 29 µM; in assay [5], 16.1 µM; in assay [6], 29 µM. The TGI in assay [7] worked out at 10.2 µM; in assay [8] it was 10.3 µM.

Consider `COC(=O)CC1C2(C)C3=C(C)C(c4ccoc4)CC3OC2C2OC(=O)C3(C)C=CC(=O)C1(C)C23` (stereo not given), for which the TGI in assay [1] was more than 96.3 µM; in assay [2], 4.99 µM; in assay [3] it was 2.76 µM; in assay [4] it was 14.9 µM; in assay [5], 3.52 µM; in assay [6], 3.03 µM. Further, the TGI in assay [7] worked out at 3.79 µM; in assay [8], 3.58 µM.

For `CS(=O)(=O)c1ccc2c(c1)C(=O)c1c-2n(CCCBr)c(=O)c2cc([N+](=O)[O-])ccc12`, the GI50 in assay [1] was 4.98 µM; in assay [2], 0.127 µM; in assay [3] it was 3.37 µM; in assay [4], 7.58 µM; in assay [5] it was 7.87 µM; in assay [6] it was 24 µM. In addition, the values for the GI50 in assay [7] and in assay [8] were 4.26 µM and more than 100 µM, respectively. The TGI is 44.1 µM in assay [1]; 14.8 µM in assay [2]; more than 100 µM in assay [3]; more than 100 µM in assay [4]; more than 100 µM in assay [5]; more than 100 µM in assay [6]. Moreover, the TGI in assay [7] and in assay [8] was more than 100 µM throughout.

As for `C=C[C@H]1CN2CCc3c([nH]c4c([C@@H]5CCCN5C)c(O)ccc34)[C@@H]2C[C@@H]1C[C@H]1c2[nH]c3ccccc3c2CCN1C`, the TGI is 3.04 µM and 3.39 µM in assay [1]; 3.11 µM and 3.44 µM in assay [2]; 2.06 µM and 1.85 µM and 1.9 µM in assay [3]; 3.23 µM [middle of 4 runs] in assay [4]; 3.63 µM and 3.71 µM in assay [5]; 3.14 µM and 0.41 µM and 3.09 µM in assay [6]. For the same molecule, the TGI in assay [7] was 3.28 µM; in assay [8], 3.09 µM and 2.64 µM and 3.04 µM. For the same molecule, the values for the GI50 in assay [4] and in assay [6] were 2.03 µM and 0.197 µM, respectively.

For the molecule `CCC1=C[C@@H]2CN(C1)Cc1c([nH]c3ccccc13)[C@@](C(=O)OC)(c1cc3c(cc1OC)N(C)[C@H]1[C@@](O)(C(=O)OC)[C@H](OC(C)=O)[C@]4(CC)C=CCN5CC[C@]31[C@@H]54)C2`, the GI50 in assay [1] was less than 0.01 µM; in assay [2], less than 0.01 µM; in assay [3], less than 0.01 µM; in assay [4], less than 0.01 µM; in assay [5] it was less than 0.0187 µM; in assay [6], less than 0.01 µM. The GI50 in assay [7] and in assay [8] was less than 0.01 µM in each case. In addition, the TGI in assay [1] is 9.59 µM; in assay [2], 0.141 µM; in assay [3] it was less than 0.01 µM; in assay [4], 2.02 µM; in assay [5], 41.4 µM; in assay [6], 0.0441 µM. Besides, the TGI in assay [7] came out at 18.6 µM; in assay [8] it was 0.0775 µM.

As for `Cc1cc(I)cc(CNCCN2CCOCC2)c1O`, the GI50 was more than 100 µM in assay [1]; more than 100 µM in assay [2]; more than 100 µM in assay [3]; more than 100 µM in assay [4]; 27.5 µM in assay [5]; 37.2 µM in assay [6]. Further, the GI50 in assay [7] and in assay [8] was more than 100 µM throughout. Also, the TGI in assay [1], in assay [2], in assay [3], in assay [4], in assay [5] and in assay [6] was more than 100 µM throughout. Also, the TGI in assay [7] and in assay [8] was more than 100 µM throughout.

Regarding `CC(C)n1nc(C#Cc2cccc(O)c2)c2c(N)ncnc21`, the GI50 in assay [1] was 0.583 µM and 0.17 µM; in assay [2], 1.56 µM and 1.71 µM; in assay [3], 0.832 µM and 0.217 µM; in assay [4], 0.978 µM and 1.01 µM; in assay [5], 1.23 µM and 0.992 µM; in assay [6], 0.815 µM and 0.282 µM. For the same molecule, the GI50 was 0.82 µM and 0.346 µM in assay [7]; 1.53 µM and 1.89 µM in assay [8]. In addition, the TGI is 1.88 µM and 0.632 µM in assay [1]; 6.5 µM and 4.29 µM in assay [2]; 10.8 µM and 20.2 µM in assay [3]; 3.67 µM in assay [4]; 6.75 µM and 5.4 µM in assay [5]; 3.57 µM and 1.65 µM in assay [6]. Also, the TGI in assay [7] is 2.59 µM and 1.58 µM; in assay [8], 12.7 µM and 13.2 µM.
